The source of these data is patent US20170260185A1 (priority 2014, published 2017).

Structures are written as SMILES. Structures can show the parent of a compound that is named as a salt. Where two headings read alike, the source gives them in different places.

The target in assay [1] is T1, human serotonin transporter (SERT) (Homo sapiens, UniProt P31645).
T1 construct: expressed in transfected cells; host or cells: CHO (hSERT-CHO), membrane preparation
The experiment in a line: Scintillation Proximity Assay (SPA) competition binding, [3H]citalopram, hSERT-CHO membranes.

Assay [2] addresses T2, human norepinephrine transporter (NET) (Homo sapiens, UniProt P23975).
T2 construct: expressed in transfected cells; host or cells: CHO (hNET-CHO), membrane preparation
The experiment in a line: Scintillation Proximity Assay (SPA) competition binding, [3H]nisoxetine, hNET-CHO membranes.

The target of assay [3] is T3, human dopamine transporter (DAT) (Homo sapiens, UniProt Q01959).
T3 construct: expressed in transfected cells; host or cells: CHO (hDAT-CHO), membrane preparation
T3 sequence (Q01959 whole entry): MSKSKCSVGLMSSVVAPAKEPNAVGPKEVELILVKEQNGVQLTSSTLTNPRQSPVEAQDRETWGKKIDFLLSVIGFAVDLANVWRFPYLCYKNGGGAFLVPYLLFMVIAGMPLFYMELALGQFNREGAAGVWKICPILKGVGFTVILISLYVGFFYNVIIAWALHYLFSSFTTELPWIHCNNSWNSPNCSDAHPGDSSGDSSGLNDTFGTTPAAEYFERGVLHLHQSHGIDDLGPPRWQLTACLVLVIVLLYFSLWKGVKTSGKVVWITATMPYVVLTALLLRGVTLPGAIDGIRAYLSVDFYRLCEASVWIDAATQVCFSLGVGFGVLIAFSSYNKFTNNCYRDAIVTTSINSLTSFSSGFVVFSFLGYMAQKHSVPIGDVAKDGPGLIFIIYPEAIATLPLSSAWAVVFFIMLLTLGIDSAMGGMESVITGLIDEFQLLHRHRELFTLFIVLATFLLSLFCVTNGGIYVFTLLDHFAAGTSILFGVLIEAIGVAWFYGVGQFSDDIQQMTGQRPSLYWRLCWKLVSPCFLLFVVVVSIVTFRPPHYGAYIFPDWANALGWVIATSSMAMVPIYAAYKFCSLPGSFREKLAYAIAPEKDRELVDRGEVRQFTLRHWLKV
The experiment in a line: Scintillation Proximity Assay (SPA) competition binding, [3H]WIN-35,428, hDAT-CHO membranes.

Assay [4] addresses human ERG potassium channel (hERG) (Homo sapiens, UniProt Q12809). The experiment in a line: cell-based. As for the experimental part:
Measure of the Effect on hERG Channel by Tail Current Recording Using In Vitro Rapid ICE™
The potency of the compounds of the invention in inhibiting human ERG potassium channel (hERG) tail current is assessed in a recombinant HEK293 cell line stably transfected with hERG cDNA using Rapid ICE™ (Rapid Ion Channel Electrophysiology) assay. Rapid ICE™ is an automated patch-clamp assay utilizing the PatchXpress 7000A system (Molecular Devices Corporation) or the QPatch HTX system (Sophion Bioscience A/S).
Briefly cells are cultivated for 24 to 72 hours before recordings in minimum essential medium supplemented with 10% FBS, 1% non-essential amino acids, 1% sodium pyruvate, 2 mM L-glutamine. The day of the experiment cells are detached with TrypLE and prepared to be loaded on the instrument. For PatchXpress cells are finally resuspended in 150 μl of Extracellular Buffer whereas for QPatch cells are resuspended in 7 ml Serum-Free Media containing 25 mM Hepes and Soybean trypsin inhibitor and immediately placed in the cell storage tank of the machine. The composition of the Extracellular Buffer is (mM): NaCl 137; KCl 4; CaCl2 1.8; MgCl2 1.0; D-glucose 10; N 2 hydroxyethylpiperazine-N′-2-ethanesulfonic acid (HEPES) 10; pH 7.4 with 1 M NaOH. The composition of the pipette solution is (mM): KCl 130; MgCl2 1.0; Ethylene glycol-bis(R-aminoethyl ether)-N,N,N′,N′-tetraacetic acid (EGTA) 5; MgATP 5; HEPES 10; pH 7.2 with 1 M KOH. The voltage protocol includes the following steps: step from −80 mV to −50 mV for 200 ms, +20 mV for 4.8 s, step to −50 mV for 5 s then step to the holding potential of −80 mV. Compounds of the invention are dissolved in DMSO and diluted in Extracellular Buffer to achieve final test concentrations (0.1, 1 and 10 μM) in 0.1% DMSO. The voltage protocol is run and recorded continuously during the experiment. The vehicle, corresponding to 0.1% DMSO in Extracellular Buffer, is then applied for 3 min followed by the test substance in triplicate. The standard combined exposure time is 5 min. The average of tail current amplitude values recorded from 4 sequential voltage pulses is used to calculate for each cell the effect of the test substance by calculating the residual current (% control) compared with vehicle pre-treatment. Data are reported as % inhibition for each concentration tested and IC50 values are estimated using DataXpress or QPatch software. At least two cells are tested, more if results diverge.

Where [5] appears, read: read-out: pIC50 DAT (converted).

Chain of human ERG potassium channel (hERG) (Q12809 whole entry): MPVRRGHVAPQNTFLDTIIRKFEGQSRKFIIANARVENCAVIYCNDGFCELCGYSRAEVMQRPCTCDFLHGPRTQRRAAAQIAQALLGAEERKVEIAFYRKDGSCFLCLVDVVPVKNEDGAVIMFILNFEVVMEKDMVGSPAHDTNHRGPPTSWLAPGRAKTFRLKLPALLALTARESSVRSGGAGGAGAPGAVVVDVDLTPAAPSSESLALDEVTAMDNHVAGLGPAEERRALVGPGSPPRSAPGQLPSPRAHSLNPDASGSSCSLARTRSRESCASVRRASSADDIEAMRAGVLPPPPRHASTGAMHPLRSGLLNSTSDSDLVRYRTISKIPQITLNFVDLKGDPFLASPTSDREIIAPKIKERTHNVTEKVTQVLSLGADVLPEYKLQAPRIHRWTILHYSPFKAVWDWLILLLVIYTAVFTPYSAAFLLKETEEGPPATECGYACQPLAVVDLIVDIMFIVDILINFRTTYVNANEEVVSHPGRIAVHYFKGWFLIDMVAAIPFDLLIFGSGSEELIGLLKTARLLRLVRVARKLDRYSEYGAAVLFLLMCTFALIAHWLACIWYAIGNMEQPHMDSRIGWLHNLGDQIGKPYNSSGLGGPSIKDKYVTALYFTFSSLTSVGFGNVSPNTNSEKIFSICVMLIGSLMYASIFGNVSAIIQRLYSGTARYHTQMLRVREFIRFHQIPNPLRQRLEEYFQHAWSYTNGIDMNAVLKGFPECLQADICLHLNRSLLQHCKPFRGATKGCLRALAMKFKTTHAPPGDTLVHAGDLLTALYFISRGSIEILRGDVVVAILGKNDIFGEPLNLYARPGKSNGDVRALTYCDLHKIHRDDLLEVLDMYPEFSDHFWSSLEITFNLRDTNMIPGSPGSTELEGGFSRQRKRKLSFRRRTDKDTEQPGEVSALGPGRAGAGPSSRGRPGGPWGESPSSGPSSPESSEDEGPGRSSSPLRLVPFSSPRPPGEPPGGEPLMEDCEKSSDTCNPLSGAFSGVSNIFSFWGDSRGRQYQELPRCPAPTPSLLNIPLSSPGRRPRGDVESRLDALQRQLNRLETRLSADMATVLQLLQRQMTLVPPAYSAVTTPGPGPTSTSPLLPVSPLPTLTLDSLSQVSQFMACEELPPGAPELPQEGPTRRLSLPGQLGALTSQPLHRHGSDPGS
T2 sequence (P23975 whole entry): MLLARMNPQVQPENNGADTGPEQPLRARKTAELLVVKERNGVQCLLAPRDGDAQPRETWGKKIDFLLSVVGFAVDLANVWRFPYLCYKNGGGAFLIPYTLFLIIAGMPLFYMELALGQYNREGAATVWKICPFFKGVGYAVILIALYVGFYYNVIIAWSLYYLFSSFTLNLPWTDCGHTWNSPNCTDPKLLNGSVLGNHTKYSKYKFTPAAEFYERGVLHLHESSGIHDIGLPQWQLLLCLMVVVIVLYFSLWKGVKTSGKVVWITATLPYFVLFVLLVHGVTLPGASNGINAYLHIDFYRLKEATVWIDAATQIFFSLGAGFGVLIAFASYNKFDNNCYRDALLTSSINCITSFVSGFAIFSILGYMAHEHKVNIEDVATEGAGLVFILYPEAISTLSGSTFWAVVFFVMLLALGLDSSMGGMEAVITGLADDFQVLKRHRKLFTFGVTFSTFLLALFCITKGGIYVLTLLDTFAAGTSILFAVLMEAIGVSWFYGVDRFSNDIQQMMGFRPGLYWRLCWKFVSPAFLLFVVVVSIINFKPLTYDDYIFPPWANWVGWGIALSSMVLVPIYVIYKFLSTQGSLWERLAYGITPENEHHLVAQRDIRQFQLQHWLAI
T1 sequence (P31645 whole entry): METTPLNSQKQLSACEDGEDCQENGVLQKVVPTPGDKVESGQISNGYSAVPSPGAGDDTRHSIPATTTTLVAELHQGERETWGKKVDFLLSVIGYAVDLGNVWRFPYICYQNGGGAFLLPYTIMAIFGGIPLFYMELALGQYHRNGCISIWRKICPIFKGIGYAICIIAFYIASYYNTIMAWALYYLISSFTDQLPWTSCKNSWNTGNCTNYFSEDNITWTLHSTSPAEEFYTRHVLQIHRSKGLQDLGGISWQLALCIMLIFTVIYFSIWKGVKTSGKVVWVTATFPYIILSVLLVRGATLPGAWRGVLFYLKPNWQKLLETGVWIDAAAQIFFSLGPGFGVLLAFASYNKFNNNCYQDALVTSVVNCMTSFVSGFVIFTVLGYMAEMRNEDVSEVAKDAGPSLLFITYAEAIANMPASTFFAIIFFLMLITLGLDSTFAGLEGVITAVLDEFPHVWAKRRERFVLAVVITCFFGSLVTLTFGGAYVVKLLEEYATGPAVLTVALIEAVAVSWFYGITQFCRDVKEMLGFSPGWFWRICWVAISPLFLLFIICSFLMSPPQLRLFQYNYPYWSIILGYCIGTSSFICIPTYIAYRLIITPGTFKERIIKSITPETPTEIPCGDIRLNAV

Take `Fc1ccc(C(c2ccc(F)cc2)N2CCC3(CNCCC34OCCO4)C2)cc1` (stereo not shown) [Example 6, 8-[bis(4-fluorophenyl)methyl]-1,4-dioxa-8,12-diazadispiro[4.0.4^6.4^5]tetradecane]: the IC50 in assay [1] is 3.39 µM; in assay [2], 4.47 µM; in assay [3] (setting [5]), 0.309 µM.

Turning to `CO/N=C1\CCNC[C@]12CCN(C(c1ccc(F)cc1)c1ccc(F)cc1)C2` (single isomer, unassigned) [Example 15, (5S or 5R,10E)-2-[bis(4-fluorophenyl)methyl]-N-methoxy-2,7-diazaspiro[4.5]decan-10-imine], the IC50 is 4.79 µM in assay [1], 2 µM in assay [2] and 0.204 µM in assay [3] (setting [5]).

As to `O[C@@H]1CCNC[C@]12CCN(C(c1ccc(F)cc1)c1ccc(F)cc1)C2` (single isomer, unassigned) [Example 11, 2-[bis(4-fluorophenyl)methyl]-2,7-diazaspiro[4.5]decan-10-ol], the IC50 in assay [1] is 12.9 µM; in assay [2], 3.55 µM; in assay [3] (setting [5]) it was 0.224 µM.

With `Fc1ccc(C(c2ccc(F)cc2)N2CCC3(CCNCC34OCCO4)C2)cc1` (stereo not shown) [Example 20, 8-[bis(4-fluorophenyl)methyl]-1,4-dioxa-8,13-diazadispiro[4.0.4^6.4^5]tetradecane], the results for the IC50 in assay [1], in assay [2] and in assay [3] (pIC50 DAT) were 2.09 µM, 2 µM and 0.0288 µM, respectively.

As to `Fc1ccc(C(c2ccc(F)cc2)N2CCC3(CC2)CNCCO3)cc1` [Example 31, 9-[bis(4-fluorophenyl)methyl]-1-oxa-4,9-diazaspiro[5.5]undecane], the IC50 in assay [4] was 3.16 µM; in assay [1] it was 2.63 µM; in assay [2] it was 2.04 µM; in assay [3] (pIC50 DAT) it was 0.0468 µM.

Regarding `Fc1ccc(C(c2ccc(F)cc2)N2CC[C@]3(CNCCC3(F)F)C2)cc1` (single isomer, unassigned) [Example 17, (5S or 5R)-2-[bis(4-fluorophenyl)methyl]-10,10-difluoro-2,7-diazaspiro[4.5]decane], the IC50 in assay [4] was 3.16 µM; in assay [1], 13.2 µM; in assay [2], 1.07 µM; in assay [3] (pIC50 DAT), 0.0229 µM.

As to `O=C1CCNC[C@]12CCN(C(c1ccc(F)cc1)c1ccc(F)cc1)C2` (single isomer, unassigned) [Example 10, (5S or 5R)-2-[bis(4-fluorophenyl)methyl]-2,7-diazaspiro[4.5]decan-10-one dihydrochloride salt], the IC50 in assay [4] (hERG tail current, HEK293 cells, read-out: pIC50 hERG (converted)) was 5.01 µM; in assay [1], 15.5 µM; in assay [2] it was 6.46 µM; in assay [3] (setting [5]) it was 0.148 µM.

Consider `Fc1ccc(C(c2ccc(F)cc2)N2CCC3(CCNCC3)C2)cc1` [Example 27, 2-[bis(4-fluorophenyl)methyl]-2,8-diazaspiro[4.5]decane], for which the IC50 in assay [4] is 2.51 µM; in assay [1] it was 3.47 µM; in assay [2], 1.7 µM; in assay [3] (setting [5]), 0.148 µM.

With `Fc1ccc(C(c2ccc(F)cc2)N2CCC3(CC2)CNCCS3)cc1` [Example 32, 9-[bis(4-fluorophenyl)methyl]-1-thia-4,9-diazaspiro[5.5]undecane], the IC50 was 2.34 µM in assay [1], 2.45 µM in assay [2] and 0.0589 µM in assay [3] (pIC50 DAT).

In the case of `O[C@@H]1CCNC[C@@]12CCN(C(c1ccc(F)cc1)c1ccc(F)cc1)C2` (single isomer, unassigned) [Example 14, 2-[bis(4-fluorophenyl)methyl]-2,7-diazaspiro[4.5]decan-10-ol], the IC50 in assay [1] was 22.4 µM; in assay [2] it was 1.74 µM; in assay [3] (setting [5]) it was 0.2 µM.

Regarding `O=C1CCNCC12CCN(C(c1ccc(Cl)cc1)c1ccc(Cl)cc1)C2` (stereo not shown) [Example 19, 2-[bis(4-chlorophenyl)methyl]-2,7-diazaspiro[4.5]decan-10-one], the IC50 in assay [1] was 1.78 µM; in assay [2], 3.31 µM; in assay [3] (setting [5]) it was 0.204 µM.

Consider `Fc1ccc(C(c2ccc(F)cc2)N2CCCC3(CCNC3)C2)cc1` (stereo not shown) [Example 24, 7-[bis(4-fluorophenyl)methyl]-2,7-diazaspiro[4.5]decane], for which the IC50 in assay [1] is 11 µM; in assay [2] it was 0.295 µM; in assay [3] (setting [5]), 0.537 µM.

`Fc1ccc(C(c2ccc(F)cc2)N2CCC3(CCCNC3)CC2)cc1` [Example 26, 9-[bis(4-fluorophenyl)methyl]-2,9-diazaspiro[5.5]undecane]: the results for the IC50 in assay [1], in assay [2] and in assay [3] (setting [5]) were 5.25 µM, 2 µM and 0.135 µM, respectively.

On to `OC1CNCCC12CCN(C(c1ccc(F)cc1)c1ccc(F)cc1)C2` (stereo not shown) [Example 21, 2-[bis(4-fluorophenyl)methyl]-2,8-diazaspiro[4.5]decan-6-ol], for which the IC50 in assay [1] is 6.76 µM; in assay [2] it was 6.03 µM; in assay [3] (setting [5]) it was 0.186 µM.

`Fc1ccc(C(c2ccc(F)cc2)N2CCC3(CCCNC3)C2)cc1` (stereo not shown) [Example 22, 2-[bis(4-fluorophenyl)methyl]-2,7-diazaspiro[4.5]decane]: the IC50 in assay [1] is 6.46 µM; in assay [2], 5.75 µM; in assay [3] (setting [5]) it was 0.11 µM.

As for `O[C@@H]1CCNC[C@]12CCN(C(c1ccc(F)cc1)c1ccc(F)cc1)C2` (single isomer, unassigned) [Example 12, 2-[bis(4-fluorophenyl)methyl]-2,7-diazaspiro[4.5]decan-10-ol], the IC50 in assay [1] was 17 µM; in assay [2] it was 7.94 µM; in assay [3] (setting [5]) it was 0.302 µM.

Regarding `Clc1ccc(C(c2ccc(Cl)cc2)N2CCC3(CCNCC3)C2)cc1` [Example 28, 2-[bis(4-chlorophenyl)methyl]-2,8-diazaspiro[4.5]decane], the results for the IC50 in assay [1], in assay [2] and in assay [3] (setting [5]) were 0.676 µM, 1.23 µM and 0.316 µM, respectively.

On to `Fc1ccc(C(c2ccc(F)cc2)N2CCCC3(CCNCC3)C2)cc1` [Example 25, 2-[bis(4-fluorophenyl)methyl]-2,9-diazaspiro[5.5]undecane], for which the IC50 in assay [1] is 1.58 µM; in assay [2], 2.4 µM; in assay [3] (setting [5]), 0.363 µM.

For `Clc1ccc(C(c2ccc(Cl)cc2)N2CCC3(CNCCO3)C2)cc1` (stereo not shown) [Example 30, 2-[bis(4-chlorophenyl)methyl]-6-oxa-2,9-diazaspiro[4.5]decane], the IC50 in assay [1] was 0.912 µM; in assay [2] it was 2.4 µM; in assay [3] (setting [5]), 0.151 µM.

As for `O=C1CCNC[C@]12CCN(C(c1ccc(F)cc1)c1ccc(F)cc1)C2` (single isomer, unassigned) [Example 8, (5S or 5R)-2-[bis(4-fluorophenyl)methyl]-2,7-diazaspiro[4.5]decan-10-one], the IC50 was 7.41 µM in assay [1], 1.38 µM in assay [2] and 0.132 µM in assay [3] (setting [5]).

As for `O[C@@H]1CCNC[C@@]12CCN(C(c1ccc(F)cc1)c1ccc(F)cc1)C2` (single isomer, unassigned) [Example 13, 2-[bis(4-fluorophenyl)methyl]-2,7-diazaspiro[4.5]decan-10-ol], the IC50 in assay [1] was 19.5 µM; in assay [2], 4.27 µM; in assay [3] (setting [5]), 0.174 µM.

With `CN1CCCC2(CCN(C(c3ccc(F)cc3)c3ccc(F)cc3)C2)C1` (stereo not shown) [Example 23, 2-[bis(4-fluorophenyl)methyl]-7-methyl-2,7-diazaspiro[4.5]decane], the results for the IC50 in assay [1], in assay [2] and in assay [3] (setting [5]) were 4.27 µM, 5.01 µM and 0.115 µM, respectively.

Take `COC1CCNCC12CCN(C(c1ccc(F)cc1)c1ccc(F)cc1)C2` (mixture of isomers) [Example 5, 2-[bis(4-fluorophenyl)methyl]-10-methoxy-2,7-diazaspiro[4.5]decane]: the IC50 in assay [1] was 7.41 µM; in assay [2] it was 3.24 µM; in assay [3] (setting [5]), 0.145 µM.

In the case of `O=C1CCNC[C@@]12CCN(C(c1ccc(F)cc1)c1ccc(F)cc1)C2` (single isomer, unassigned) [Example 7, (5R or 5S)-2-[bis(4-fluorophenyl)methyl]-2,7-diazaspiro[4.5]decan-10-one], the results for the IC50 in assay [1], in assay [2] and in assay [3] (setting [5]) were 14.1 µM, 2.14 µM and 0.162 µM, respectively.
